The values that follow come from US7026339B2, “Inhibitors of HCV NS5B polymerase” (priority 2003, dated 2006).

The assay concerns HuH-7 replicon cells 5–15 and 9–13 (HCV replication). In words: Inhibition of viral replication in HuH-7 replicon cells (HCV RNA / GAPDH RNA by multiplex RT-PCR). Type of assay: cell-based. The settings on record: Hepatitis C virus, 72 h; inhibiting 50% of replication; HuH-7 replicon cells, 3 days; read-out: IC50. The procedure, abridged:
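HCV and GAPDH RNA were measured by multiplex TaqMan RT-PCR (HCV 5′ untranslated region) after 3-day compound treatment at 37 °C, final 100 μM–1 μM in 1% DMSO. Cells were plated 24 h beforehand at 7×10^3/well. Read-out: HCV-to-GAPDH ratio expressed as percent control versus untreated cells.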
In general terms: In antiviral work, replicon cells carry a viral genome segment that copies itself.
A word on the IC50: it is the concentration that gives 50% inhibition. Take `O=C(Cc1cccc(Cl)c1)N/N=C/c1cc(F)ccc1OS(=O)(=O)c1ccc(C(F)(F)F)cc1` [Compound 176, 2-((E)-{[(3-chlorophenyl)acetyl]hydrazono}methyl)-4-fluorophenyl 4-(trifluoromethyl)benzenesulfonate]: the IC50 was under 5 µM.

For `O=C(CCc1ccccc1)N/N=C/c1ccccc1OS(=O)(=O)c1ccc(C(F)(F)F)cc1` [Compound 2, 2-{(E)-[2-(3-phenylpropanoyl)-hydrazono]methyl}phenyl 4-(trifluoromethyl)benzenesulfonate], the IC50 is under 5 µM.

As to `COc1cccc(CC(=O)N/N=C(\C)c2cc(F)ccc2OS(=O)(=O)c2ccc(C(F)(F)F)cc2)c1` [Compound 220, 4-fluoro-2-{(1E)-N-[(3-methoxyphenyl)acetyl]ethanehydrazonoyl}-phenyl 4-(trifluoromethyl)-benzenesulfonate], the IC50 is over 50 µM.

With `O=C(Cc1cncc(Br)c1)N/N=C/c1ccccc1OS(=O)(=O)c1ccc(C(F)(F)F)cc1` [Compound 61, 2-((E)-{2-[2-(5-bromopyridin-3-yl)acetyl]hydrazono}methyl)phenyl 4-(trifluoromethyl)benzenesulfonate], the IC50 is under 5 µM.

Regarding `O=C(Cc1cccc(Cl)c1)N/N=C/c1ncccc1OS(=O)(=O)c1ccc(C(F)(F)F)cc1` [Compound 213, 2-((E)-{2-[2-(3-chlorophenyl)acetyl]hydrazono}methyl)-pyridin-3-yl 4-(trifluoromethyl)benzenesulfonate], the IC50 lay in the range of 5 to 50 µM.

For the compound `O=C(Cc1cccnc1)N/N=C/c1ccccc1OS(=O)(=O)c1ccc(C(F)(F)F)cc1` [Compound 6, 2-{(E)-[2-(2-pyridin-3-ylacetyl)hydrazono]methyl}phenyl 4-(trifluoromethyl)benzenesulfonate], the concentration for half-maximal inhibition (IC50) was under 5 µM.

As for `COc1ccccc1CC(=O)N/N=C/c1ccccc1OS(=O)(=O)c1ccc(C(F)(F)F)cc1` [Compound 36, 2-((E)-{2-[2-(2-methoxyphenyl)acetyl]hydrazono}methyl)-phenyl 4-(trifluoromethyl)benzenesulfonate], the IC50 is 5 to 50 µM.

For `O=C(Cc1ccc(F)cc1)N/N=C/c1ccccc1OS(=O)(=O)c1ccc(C(F)(F)F)cc1` [Compound 8, 2-((E)-{2-[2-(4-fluorophenyl)acetyl]hydrazono}methyl)-phenyl 4-(trifluoromethyl)benzenesulfonate], the 50% inhibitory concentration (IC50) is under 5 µM.

For `O=C(Cc1ccccc1OCc1ccccc1)N/N=C/c1ccccc1OS(=O)(=O)c1ccc(C(F)(F)F)cc1` [Compound 56, 2-[(E)-(2-{2-[2-(benzyloxy)phenyl]acetyl}hydrazono)methyl]-phenyl 4-(trifluoromethyl)benzenesulfonate], the IC50 is under 5 µM.

For `Cc1ccc(S(=O)(=O)Cc2ccccc2/C=N/NC(=O)Cc2ccccc2)cc1` [Compound 232, N′-[(1E)-(2-{[(4-methylphenyl)sulfonyl]methyl}phenyl)-methylene]-2-phenylacetohydrazide], the IC50 is under 5 µM.

Regarding `O=C(Cc1cccc(Cl)c1)N/N=C/c1ccccc1NS(=O)(=O)c1ccc(C(F)(F)F)cc1` [Compound 242, N-[2-((E)-{[(3-chlorophenyl)acetyl]hydrazono}methyl)-phenyl]-4-(trifluoromethyl)benzenesulfonamide], the IC50 was over 50 µM.

As to `O=C(Cc1c(Cl)ccc(Cl)c1Cl)N/N=C/c1ccccc1OS(=O)(=O)c1ccc(C(F)(F)F)cc1` [Compound 22, 2-((E)-{2-[2-(2,3,6-trichlorophenyl)acetyl]hydrazono}methyl)-phenyl 4-(trifluoromethyl)benzenesulfonate], the IC50 is over 50 µM.

Regarding `COc1ccc(CC(=O)N/N=C/c2ccccc2OS(=O)(=O)c2ccc(C(F)(F)F)cc2)cc1` [Compound 44, 2-((E)-{2-[2-(4-methoxyphenyl)acetyl]hydrazono}methyl)-phenyl 4-(trifluoromethyl)benzenesulfonate], the IC50 was under 5 µM.

Consider `O=S(=O)(Cc1ccc(C(F)(F)F)cc1)N/N=C/c1ccccc1OS(=O)(=O)c1ccc(C(F)(F)F)cc1` [Compound 252, 2-[(E)-(2-{[4-(trifluoromethyl)benzyl]sulfonyl}hydrazono)-methyl]phenyl 4-(trifluoromethyl)benzenesulfonate], for which the half-inhibitory concentration (IC50) was in the range of 5 to 50 µM.

Take `COc1cccc(CC(=O)N/N=C/c2ccccc2OS(=O)(=O)c2cc(Cl)sc2Cl)c1` [Compound 187, 2-((E)-{2-[2-(3-methoxyphenyl)acetyl]hydrazono}methyl)-phenyl 2,5-dichlorothiophene-3-sulfonate]: the IC50 is under 5 µM.

In the case of `O=C(N/N=C/c1ccccc1OS(=O)(=O)c1ccc(C(F)(F)F)cc1)c1cc(Cl)ccc1Cl` [Compound 72, 2-{(E)-[2-(2,5-dichlorobenzoyl)hydrazono]methyl}phenyl4-(trifluoromethyl)benzenesulfonate], the IC50 was under 5 µM.

For the compound `COc1cccc(CC(=O)N/N=C/c2c(C)cccc2OS(=O)(=O)c2ccc(C)cc2)c1` [Compound 204, 2-((E)-{[(3-methoxyphenyl)acetyl]hydrazono}methyl)-3-methylphenyl 4-methylbenzenesulfonate], the IC50 is under 5 µM.

For `COc1cccc(CC(=O)N/N=C/c2c(F)cccc2OS(=O)(=O)c2ccc(C(F)(F)F)cc2)c1` [Compound 207, 3-fluoro-2-((E)-{[(3-methoxyphenyl)acetyl]hydrazono}methyl)-phenyl 4-(trifluoromethyl)benzenesulfonate], the IC50 was under 5 µM.

`COc1cccc(CC(=O)N/N=C/c2ncccc2OS(=O)(=O)c2ccc(C)cc2)c1` [Compound 185, 2-((E)-{2-[2-(3-methoxyphenyl)acetyl]hydrazono}methyl)-pyridin-3-yl 4-methylbenzenesulfonate]: the IC50 is under 5 µM.

With `COc1cccc(CC(=O)N/N=C/c2ccccc2OS(=O)(=O)c2ccc(Oc3ccccc3)cc2)c1` [Compound 191, 2-((E)-{2-[2-(3-methoxyphenyl)acetyl]hydrazono}methyl)-phenyl 4-phenoxybenzenesulfonate], the IC50 is over 50 µM.

As to `O=C(CCc1cccnc1)N/N=C/c1ccccc1OS(=O)(=O)c1ccc(C(F)(F)F)cc1` [Compound 30, 2-{(E)-[2-(3-pyridin-3-ylpropanoyl)hydrazono]methyl}phenyl 4-(trifluoromethyl)benzenesulfonate], the IC50 is under 5 µM.

In the case of `CSc1ncccc1C(=O)N/N=C/c1ccccc1OS(=O)(=O)c1ccc(C(F)(F)F)cc1` [Compound 83, 2-[(E)-(2-{[2-(methylthio)pyridin-3-yl]carbonyl}hydrazono)methyl]phenyl 4-(trifluoromethyl)benzenesulfonate], the IC50 is under 5 µM.

With `COc1cccc(CC(=O)N/N=C/c2ccccc2OS(=O)(=O)c2ccc(C)cc2)c1` [Compound 145, 2-((E)-{2-[2-(3-methoxyphenyl)acetyl]hydrazono}methyl)-phenyl 4-methylbenzenesulfonate], the IC50 is under 5 µM.

In the case of `COc1cccc(CC(=O)N/N=C/c2cc(F)ccc2OS(=O)(=O)c2ccc(C(F)(F)F)cc2)c1` [Compound 172, 4-fluoro-2-((E)-{[(3-methoxyphenyl)acetyl]hydrazono}methyl)-phenyl 4-(trifluoromethyl)benzenesulfonate], the IC50 was under 5 µM.

Consider `O=C(Cc1ccccc1)N/N=C/c1ccccc1OS(=O)(=O)c1ccccc1` [Compound 108, 2-{(E)-[2-(2-phenylacetyl)hydrazono]methyl}phenylbenzenesulfonate], for which the IC50 is over 50 µM.
